Entries after “also recorded” stand apart in the source; their conditions may differ.
Key:
zebrafish larvae = test: Endocytosis inhibitor treatment of zebrafish, motor axon phenotype; assay type: in vivo
Method: The in vivo effect of inhibition of endocytosis on MN outgrowth was investigated by the use of the pharmacological inhibitors Pitstop2 and Dynasore (both Abcam) in the SMA zebrafish model. Motor axons of treated zebrafish larvae were analyzed by fluorescence microscopy. For immunohistochemistry, zebrafish were manually dechorionated and fixed in 4% PFA-PBS at 34 hours post fertilization. To permeabilize the larvae for the following antibody staining, collagenase digest of the whole animal was performed. To visualize the primary motor axons, fish were incubated at 4° C. over night in 500 μl PBS-T/1% DMSO/10% FCS containing znp-1 antibody (1:300, Hybridoma Bank). Fish were stained in PBS-T/1% DMSO/10% FCS containing secondary donkey anti-mouse antibody labelled with Alexafluor 488 (1:200, Invitrogen) after all-day washing in PBS-T/1% FCS/1% BSA (changing solution every hour). After repeated washing in PBS-T and PBS, fish were stored in 80% glycerol/20% PBS in the dark at 4° C. Labelled fish were embedded in low-melting agarose micro slides and analysed using a fluorescence microscope (AxioImager M2, Zeiss). The structure of each of the first ten motor axons posterior to the yolk was analysed, rated as: 1) normal, 2) truncated (truncation ventral from midline), 3) severely truncated (shorter than midline), 4) branched I (branching ventral from midline), 5) branched II (branching at midline), or 6) branched BI (branching dorsal from midline) and statistically evaluated using Excel (Microsoft). Dynasore (dynamin inhibitor) and Pitstop2 (clathrin inhibitor) (both Abcam) were dissolved as stock solution (50 mM) in DMSO and stored at −20° C. Zebrafish were treated with the respective concentrations starting at 16 hpf. To do so, fish were dechorionated and substance was added to the embryo medium. Fish larvae were incubated at 28° C. in an incubator on a rocking platform (20 rpm) until fixed in PBS-PFA at 34 hpf. Subsequently fish were stained with znp-1 antibody, as described above.

NSC34 cells = test: FITC-dextran endocytosis assay of NSC34 cells treated with Ionomycin; assay type: cell-based, mouse; details: presence vs absence of Ionomycin, n=50
Method: To unravel differences in endocytosis performance, cells (fibroblasts and NSC34) were starved and subsequently incubated with FITC-dextran. FITC-uptake after respective incubation times was quantified either by microscopic analysis or by FACS.
One day before the measurement, some 15,000 fibroblasts per well (4-well EZ slides, Millipore) were plated out in 500 μl normal DMEM growth medium (Invitrogen). Cells were starved for 10 minutes in starvation media (DMEM transparent (HEPES), 2% FKS) at 37° C. For endocytosis, cells were treated with FITC dextran solution (5 mg/ml FITC-dextran in starvation medium) for respective time period at 37° C. Subsequently, medium was removed and cells were washed three times with ice-cold PBS on ice and fixed in 4% paraformaldehyde for ten minutes. After subsequent washing (2 times in PBS) cells were stained with Alexafluor 568 phalloidin (Invitrogen, 2 hours at 4° C.). Then, after washing cells were stained with DAPI and mounted with Mowiol (Sigma). Finally, FITC fluorescence was monitored at the fluorescence microscope (Axiolmager M2, Zeiss) and quantified using the Zen software (Zeiss) and evaluated with Excel (Microsoft).

Ncald = test: Knockdown efficiency of shRNA constructs in NSC34 cells (qRT-PCR of Ncald levels); assay type: cell-based, mouse; details: transient transfection of NSC34 cells, 72 h
Method: Before starting the cloning of the targeting construct for the mouse generation, we constructed and tested five individual shRNA elements targeting the Ncald gene. To do so, we transiently transfected five different shRNA-Ncald constructs in murine NSC34 cells and analysed the knockdown efficiency after 72 h. […] For further testing, we cloned selected shRNA sequences into the vector pEx-H1tetO-CAG-tetR carrying all necessary elements of the tetO/R system which allow later induction of the shRNA-expression by administration of doxycycline (Dox) (Kleinhammer et al. 2011). Currently, after we could verify the dox-inducible capability of two shRNA constructs to knockdown Ncald, we are producing stable murine embryonic cell lines (ES cells) to subsequently generate two individual transgenic mouse strains containing inducible Ncald knockdown vectors. These mice will later be crossed on SMA background to investigate the protective ability of Ncald downregulation.
The knockdown efficiency of five individual shRNA sequences was tested by qRT-PCR-based quantification of Ncald levels, 72 h after knockdown using different shRNA sequences. Transient transfection of NSC34 cells. The respective sequences are those of SEQ ID NO: 15-19 as shown above.

In the case of `O=C(N/N=C/c1ccc(O)c(O)c1)c1cc2ccccc2cc1O` [Dynasore], the “Motor axon truncation, inhibitor alone or with low smn MO” value (zebrafish larvae; Dynasore alone or in combination with low smn MO) is reported as “SMA-like axonal truncations”.
In the case of `C[C@H](CCC(=O)O)C[C@H](C)C[C@H](C)C(=O)/C=C(\O)[C@H](C)C[C@H](C)C/C=C/[C@@H](C)[C@@H](O)[C@@H](C)[C@@H](O)C[C@@H]1CC[C@@](C)([C@H]2CC[C@@](C)([C@@H](C)O)O2)O1` [Ionomycin], the “Endocytosis (FITC-dextran)” value (NSC34 cells) is reported as “significant increase in endocytosis; also recorded: significantly increased endocytosis”.
`O=C1NC(=NS(=O)(=O)c2cccc3ccccc23)S/C1=C\c1ccc(Br)cc1` [Pitstop2] was tested, and the “Motor axon truncation, inhibitor in combination with smn MO” value (zebrafish larvae; subphenotypical smn MO (2 ng) plus Pitstop2) was “significant elevation in the number of truncated motor axons” and the “Motor axon truncation, inhibitor in combination with smn MO” value (zebrafish larvae; subphenotypical smn MO (2 ng) plus Pitstop2, listed as Pitstop) was “synergistic effect”.
In the case of “shRNA #4: shRNA knocking down mouse NCALD, one of five of SEQ ID NO: 15-19 (DNA CCGGCGCCAGATGGATACCAATAGACTGGAGTCTATTGGTATCCATCTGGCGTTTTTG)”, the “Knockdown efficacy of Ncald” value (Ncald) is reported as “sufficient knockdown efficacy”.
With “shRNA #5: shRNA knocking down mouse NCALD, one of five of SEQ ID NO: 15-19 (DNA CCGGGCTTCCAAATTTGCAGAGCATCTGGAGATGCTCTGCAAATTTGGAAGCTTTTTG)” the “Knockdown efficacy of Ncald” value (Ncald) was “sufficient knockdown efficacy”.

Reference: US9988626B2, “Neurocalcin delta inhibitors and therapeutic and non-therapeutic uses thereof” (Universität Zu Köln, priority 2013, dated 2018)
